Measured values published in PubChem BioAssay (NCI).
Several values for one entry are separate records, joined by “and”; a condition that tells them apart may be missing. Equal values may be shown once.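 Cells were grown in 96-well plates and exposed to each compound for 48 hours at five concentrations; endpoints were interpolated linearly between bracketing concentrations, or set to the highest concentration if not reached. GI50 is the concentration that inhibits growth by half. TGI: total growth inhibition.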

What was measured:
Assay in all cases: NCI-60 cell line screen, 48 h
DLD-1 colon = test system: DLD-1 colon
DMS 273 small cell lung = test system: DMS 273 small cell lung
EKVX NSCLC = test system: EKVX NSCLC
IGROV1 ovarian = test system: IGROV1 ovarian
OVCAR-3 ovarian = test system: OVCAR-3 ovarian
RPMI-8226 leukemia = test system: RPMI-8226 leukemia
SNB-19 CNS = test system: SNB-19 CNS
NCI-H226 lung = test system: NCI-H226 lung
MCF7 breast = test system: MCF7 breast
MDA-MB-231 breast = test system: MDA-MB-231 breast

Row | Structure (SMILES) | TGI (DLD-1 colon) | TGI (DMS 273 small cell lung) | TGI (EKVX NSCLC) | TGI (IGROV1 ovarian) | TGI (OVCAR-3 ovarian) | TGI (RPMI-8226 leukemia) | TGI (SNB-19 CNS) | TGI (NCI-H226 lung) | TGI (MCF7 breast) | TGI (MDA-MB-231 breast) | GI50 (DLD-1 colon) | GI50 (DMS 273 small cell lung) | GI50 (EKVX NSCLC) | GI50 (IGROV1 ovarian) | GI50 (OVCAR-3 ovarian) | GI50 (RPMI-8226 leukemia) | GI50 (SNB-19 CNS)
1 | CCCCOC(=O)NC(=O)c1cn(CCSCCOC(=O)NCCCCCCNC(=O)OCCSCCn2cc(C(=O)NC(=O)OCCCC)c(=O)[nH]c2=O)c(=O)[nH]c1=O | > 100 µM | > 100 µM | > 100 µM | > 100 µM | > 100 µM | > 100 µM | > 100 µM |  |  |  |  |  |  |  |  |  | 
2 | CCN(c1ccc(Br)cc1)c1c(Br)c(=O)nc2ccccn12 | > 100 µM | > 100 µM | > 100 µM | > 100 µM | > 100 µM | > 100 µM | > 100 µM | > 100 µM |  |  |  |  |  |  |  |  | 
3 | O=C(OCC1CO1)c1cccs1 (configuration not stated) | > 100 µM | > 100 µM | > 100 µM | > 100 µM | > 100 µM | > 100 µM | > 100 µM |  |  |  |  |  |  |  |  |  | 
4 | C1OC1CO[C@@H]1CO[C@H]2[C@@H]1OC[C@H]2OCC1CO1 (some centres not stated) | > 100 µM | > 100 µM | > 100 µM | > 100 µM | > 100 µM | > 100 µM | > 100 µM | > 100 µM |  |  |  |  |  |  |  |  | 
5 | C/C(=N\N=C(/[Se])N1CC2CCC(CC2)C1)c1ccccn1 | 1.96 µM | 1.79 µM | 2.06 µM | 2.48 µM | 1.61 µM | 0.22 µM | 4.06 µM | 1.88 µM | 2.8 µM | 2.65 µM |  |  |  |  |  |  | 
6 | CC(=O)OC1(C)C(=O)OC1(C)C(C)=O (configuration not stated) | > 100 µM | > 100 µM | > 100 µM | > 100 µM | > 100 µM | > 100 µM | > 100 µM | > 100 µM |  |  |  |  |  |  |  |  | 
7 | CC(=O)OCC1OC(OC2CC3C(C)(C)C(O)CC[C@]3(C)C3CCC45CC4(CC[C@H]5C(C)CC(O)C4OC4(C)C)[C@]23C)C(O)C(O)C1O (some centres not stated) | 14.9 µM and 28.8 µM | 15.1 µM and 15.7 µM | 15.9 µM and 29.2 µM | 7.61 µM and 15.6 µM | 12.5 µM and 17.6 µM | 2.41 µM and 7.16 µM | 15 µM and 16.9 µM | 16.1 µM |  |  | 14 µM | 4.44 µM | 13.7 µM | 5.91 µM | 4.26 µM | 2490 nM | 5.14 µM
8 | COc1cc(/C=C2\CCC(CN(C)C)C2=O)ccc1OC(=O)c1ccccc1 (configuration not stated) | 16.1 µM | 27.4 µM | 28.1 µM | 27.9 µM | 21.3 µM | 9.3 µM | 25.5 µM | 33.8 µM | 21 µM | 19.1 µM |  |  |  |  |  |  | 
9 | Cc1cc(NS(=O)(=O)c2ccc(NC(=O)c3cccc4c(Nc5ccc(S(=O)(=O)N=C(N)N)cc5)c5ccccc5nc34)cc2)no1 | > 100 µM | > 100 µM | > 100 µM | > 100 µM | > 100 µM | > 100 µM | > 100 µM | > 100 µM |  |  |  |  |  |  |  |  | 
10 | CCOC(=O)C1SC(=Nc2ccc(Cl)c(Cl)c2)N=C1C (configuration not stated) | > 100 µM | > 100 µM | > 100 µM | > 100 µM | 60.6 µM | 56.9 µM | > 100 µM | 67.7 µM |  |  |  |  |  |  |  |  | 
11 | Nc1c(C(=O)Nc2ccccc2)[n+]([O-])c2ccccc2[n+]1[O-] | 37.6 µM | 46.9 µM | 56.9 µM | 44.8 µM | 31.7 µM | > 100 µM | 31 µM | 76.3 µM |  |  |  |  |  |  |  |  | 
